From paper PMC5297809, “Design, Synthesis and Antifungal Activity Evaluation of New Thiazolin-4-ones as Potential Lanosterol 14α-Demethylase Inhibitors” (International Journal of Molecular Sciences, 2017)
≈ marks a conversion by molar mass, not a printed value. Read-outs that look alike come from different tables or passages of the source.

What was measured:
[1] = system: Candida albicans ATCC 18804; assay: broth microdilution MIC/MFC; type: cell-based
[2] = system: Candida albicans ATCC 10231; assay: broth microdilution MIC/MFC; type: cell-based
[3] = lipophilicity by RP-TLC with PCA; type: physicochemical; set-up: key to P1 / P2: PCA scores of compounds computed from Rf data; details: for RM0: RP-TLC C18, water-i-propanol 45-65%, intercept, RM extrapolated to 0% organic modifier (lipophilicity); for b: RP-TLC regression slope (specific hydrophobic surface area); for P1: score of first principal component of Rf data, low P1 = highly lipophilic; for P2: score of second principal component of Rf data
Description: The lipophilic character of twenty thiazolin-4-one derivatives was assessed with the help of the principal component analysis (PCA) based on the reversed-phase thin-layer chromatography (RP-TLC) data.
The chromatographic behavior of the test compounds was studied on C18 silicagel bonded 60 RP-180F254S TLC (20 × 20 cm) plates, purchased from Merck (Darmstadt, Germany). The test compounds’ solutions (1 mg/mL) were prepared by dissolving the samples in DMSO (Merck, Darmstadt, Germany). The plates were manually spotted with 3 µL aliquots of each solution at 10 mm from the base and 5 mm from the edge of the plate, leaving a 10 mm distance between successive spots, and developed by the ascending technique, without preconditioning. Chromatography was performed in a normal developing chamber at room temperature (~24 °C), the developing distance being of 9 cm. The solvent system used as mobile phase consisted of a water-i-propanol mixture, with a varying content of organic modifier (i-propanol—concentration ranged between 45% and 65% (v/v), with 5% vol. increments). Before the development, the chamber was saturated with the mobile phase for 15 min. After being developed, the dried plates were visually inspected under the UV light (λ = 254 nm), each spot was clearly marked and its distance was manually measured in order to calculate the Rf values. The spots of the compounds 3f, 10 and 11 were not visible in UV light, thus their Rf values could not be calculated, therefore they were excluded from this assay.
Based on the Rf values, one of the most common lipophilic estimator, meaning the isocratic retention factor RM was calculated using the Bate-Smith and Westall equations [40].
RP-TLC provides retention data in the form of Rf and the corresponding RM values (Equation (2)) that can be used to derive chromatographic descriptors for estimating lipophilicity: RM0, b and PCA. The most popular lipophilicity descriptor estimated by this method is RM and it is derived from the retention factor (Rf) according to the following formula: RM = log[(1/Rf) − 1] (2) where Rf is calculated on the basis of migration distance of a compound and the solvent front.
As RM value (related to the molecular lipophilicity) depends linearly on the concentration of the organic modifier in the mobile phase, the value is extrapolated to pure water as mobile phase. In order to increase the accuracy of the lipophilicity determination, the RM values extrapolated to zero organic modifier concentration (RM0) have been calculated from the linear correlation between the RM values and the concentration of the organic component of the mobile phase: RM = RM0 + bc (3) where RM0 is the lipophilicity estimation parameter, RM is the retention of the solute, b is the slope, and c is the concentration of the mobile phase organic modifier (i-propanol).
The intercept (RM0) in Equation (3) represents the extrapolated RM values at 0% organic modifier.
PCA was performed on the obtained retention parameters with the help of XL-STAT extension. […] PCA gave the coordinates (scores) of the studied compounds and also the loadings of the variables (solvents) on the principal components.

[4] = system: Candida albicans ATCC 10231; assay: cup-plate agar diffusion method, inhibition zone diameters; type: cell-based
[5] = system: Candida parapsilosis ATCC 22019; assay: broth microdilution MIC/MFC; type: cell-based; details: Lodderomyces parapsilosis, ATCC22019
Candida krusei ATCC 6258 = assay: broth microdilution MIC/MFC; type: cell-based; details: Pichia kudriavzevii, ATCC6258
[6] = ATCC18804, C. albicans ATCC 18804, read-out: MFC
[7] = ATCC18804, C. albicans ATCC 18804, read-out: MIC
[8] = ATCC10231, C. albicans ATCC 10231, read-out: MFC
[9] = ATCC10231, C. albicans ATCC 10231, read-out: MIC
[10] = ATCC10231, C. albicans ATCC 10231, 1 mg/mL in DMSO, 20 µg/well, mean of three ± SD, read-out: inhibition zone diameters
[11] = C. parapsilosis ATCC 22019, read-out: MFC
[12] = C. parapsilosis ATCC 22019, read-out: MIC
[13] = C. krusei ATCC 6258, read-out: MFC
[14] = C. krusei ATCC 6258, read-out: MIC

Compound | MFC [1, 6] [µg/mL] | MIC [1, 7] [µg/mL] | melting point [°C] | MFC [2, 8] [µg/mL] | MIC [2, 9] [µg/mL] | RM0 [3] | b [3] | P1 [3] | P2 [3] | zone of inhibition at 1000 µg/mL [4, 10] [mm] | MFC [5, 11] [µg/mL] | MIC [5, 12] [µg/mL] | MFC (Candida krusei ATCC 6258; [13]) [µg/mL] | MIC (Candida krusei ATCC 6258; [14]) [µg/mL] | other results
O=C1N=C(Nc2cccc3ccccc23)SC1=Cc1ccc([N+](=O)[O-])cc1 [Compound 9c, 2-(Naphthalen-1-ylamino)-5-(4-nitrobenzylidene)thiazol-4(5H)-one] | 3.9 (≈ 10.4 µM) | 1.95 (≈ 5.19 µM) | 152 | 3.9 (≈ 10.4 µM) | 1.95 (≈ 5.19 µM) | 2.7789 | −4.1555 | −2.722 | 0.228 | 20 ± 0.5 | 0.06 (≈ 0.16 µM) | 0.03 (≈ 0.0799 µM) | 1.95 (≈ 5.19 µM) | 0.97 (≈ 2.58 µM) | –
C=CCNC1=NC(=O)C(=Cc2cccc(Br)c2)S1 [Compound 3f, 2-(Allylamino)-5-(3-bromobenzylidene)thiazol-4(5H)-one] | 15.6 (≈ 48.3 µM) | 7.81 (≈ 24.2 µM) | 330 | 3.9 (≈ 12.1 µM) | 1.95 (≈ 6.03 µM) | – | – | – | – | 22 ± 0.2 | 3.9 (≈ 12.1 µM) | 1.95 (≈ 6.03 µM) | 7.81 (≈ 24.2 µM) | 3.9 (≈ 12.1 µM) | –
O=C1N=C(Nc2cccc3ccccc23)SC1=Cc1cccc(Cl)c1 [Compound 9a, 5-(3-Chlorobenzylidene)-2-(naphthalen-1-ylamino)thiazol-4(5H)-one] | 7.81 (≈ 21.4 µM) | 1.95 (≈ 5.34 µM) | 140 | 7.81 (≈ 21.4 µM) | 3.9 (≈ 10.7 µM) | 2.5309 | −4.1292 | −1.227 | −0.239 | 18 ± 1 | 0.97 (≈ 2.66 µM) | 0.48 (≈ 1.32 µM) | 0.97 (≈ 2.66 µM) | 0.48 (≈ 1.32 µM) | –
O=C1N=C(Nc2cccc3ccccc23)SC1=Cc1coc2ccc(Cl)cc2c1=O [Compound 9e, 5-((6-Chloro-4-oxo-4H-chromen-3-yl)methylene)-2-(naphthalen-1-ylamino)thiazol-4(5H)-one] | 3.9 (≈ 9.01 µM) | 1.95 (≈ 4.5 µM) | 266 to 268 | 15.6 (≈ 36.1 µM) | 7.81 (≈ 18 µM) | 2.3983 | −3.319 | −3.292 | 0.708 | 22 ± 0.5 | 3.9 (≈ 9.01 µM) | 1.95 (≈ 4.5 µM) | 3.9 (≈ 9.01 µM) | 1.95 (≈ 4.5 µM) | –
O=C1N=C(Nc2ccccc2)SC1=Cc1cccc(Cl)c1 [Compound 6a, 5-(3-Chlorobenzylidene)-2-(phenylamino)thiazol-4(5H)-one] | 15.6 (≈ 49.6 µM) | 7.81 (≈ 24.8 µM) | 278 to 280 | 31.2 (≈ 99.3 µM) | 15.6 (≈ 49.6 µM) | 2.1738 | −3.9258 | 0.485 | −0.534 | 20 ± 0.5 | 3.9 (≈ 12.4 µM) | 3.9 (≈ 12.4 µM) | 3.9 (≈ 12.4 µM) | 7.81 (≈ 24.8 µM) | –
O=C1N=C(Nc2ccccc2)SC1=Cc1ccc([N+](=O)[O-])cc1 [Compound 6c, 5-(4-Nitrobenzylidene)-2-(phenylamino)thiazol-4(5H)-one] | 3.9 (≈ 12 µM) | 1.95 (≈ 5.99 µM) | 347 | 1.95 (≈ 5.99 µM) | 0.97 (≈ 2.98 µM) | 1.7388 | −3.3696 | 1.394 | −0.304 | 20 ± 1 | 1.95 (≈ 5.99 µM) | 0.97 (≈ 2.98 µM) | 1.95 (≈ 5.99 µM) | 0.97 (≈ 2.98 µM) | –
C=CCNC1=NC(=O)C(=Cc2ccc([N+](=O)[O-])cc2)S1 [Compound 3c, 2-(Allylamino)-5-(4-nitrobenzylidene)thiazol-4(5H)-one] | 31.2 (≈ 108 µM) | 31.2 (≈ 108 µM) | 265 | 31.2 (≈ 108 µM) | 31.2 (≈ 108 µM) | 1.7553 | −3.314 | 1.049 | −0.259 | 18 ± 1 | 31.2 (≈ 108 µM) | 15.6 (≈ 54 µM) | 15.6 (≈ 54 µM) | 15.6 (≈ 54 µM) | –
O=C1CSC(Nc2cccc3ccccc23)=N1 [Compound 8, 2-(naphthalen-1-ylamino)thiazol-4(5H)-one] | 0.24 (≈ 0.99 µM) | 0.12 (≈ 0.495 µM) | – | 0.24 (≈ 0.99 µM) | 0.12 (≈ 0.495 µM) | 1.6225 | −3.0931 | 1.125 | −0.163 | 24 ± 1 | 0.12 (≈ 0.495 µM) | 0.03 (≈ 0.124 µM) | 0.12 (≈ 0.495 µM) | 0.06 (≈ 0.248 µM) | –
O=C1CSC(Nc2ccccc2)=N1 [Compound 5, 2-(phenylamino)thiazol-4(5H)-one] | – | – | – | – | – | 0.9459 | −2.2931 | 2.796 | 0.238 | – | – | – | – | – | MFC ([1]; ATCC18804): 0.24 µg/mL (≈ 1.25 µM); MIC ([1]; ATCC18804): 0.12 µg/mL (≈ 0.624 µM); MFC ([2]; ATCC10231): 0.48 µg/mL (≈ 2.5 µM); MIC ([2]; ATCC10231): 0.24 µg/mL (≈ 1.25 µM); zone of inhibition at 1000 µg/mL ([4]; ATCC10231, read-out: inhibition zone diameters): 22 ± 0.5 mm; MFC [5]: 0.12 µg/mL (≈ 0.624 µM); MIC [5]: 0.06 µg/mL (≈ 0.312 µM); MFC (Candida krusei ATCC 6258): 0.12 µg/mL (≈ 0.624 µM); MIC (Candida krusei ATCC 6258): 0.06 µg/mL (≈ 0.312 µM)
O=C1CSC(c2ccccc2)=N1 [Compound 11, 2-phenylthiazol-4(5H)-one] | 0.24 (≈ 1.35 µM) | 0.12 (≈ 0.677 µM) | – | 0.48 (≈ 2.71 µM) | 0.24 (≈ 1.35 µM) | – | – | – | – | 18 ± 1 | 0.12 (≈ 0.677 µM) | 0.06 (≈ 0.339 µM) | 0.48 (≈ 2.71 µM) | 0.12 (≈ 0.677 µM) | –
